These results are taken from patent US11324724B2, “N-(2,2-difluoroethyl)-N-[(pyrimidinylamino)propanyl]arylcarboxamides” (Boehringer Ingelheim International GmbH, priority 2017, dated 2022).

One data set relates to human MDR1 P-gp. The data set is described as follows: Assay D: efflux in MDCK cells transfected with the human MDR1 gene. In kind it is in vitro ADME, canine. The following applies: dog; MDCK-MDR1, pH 7.4, 37° C.; read-out: Assay D: MDCK efflux ratio (BA/AB). Here is the method: The MDCK assay provides information on the potential of a compound to pass the blood brain barrier. Permeability measurements across polarized, confluent MDCK-MDR1 cell monolayers grown on permeable filter supports are used as an in vitro absorption model: apparent permeability coefficients (PE) of the compounds across the MDCK-MDR1 cell monolayers are measured (pH 7.4, 37° C.) in apical-to-basal (AB) and basal-to-apical (BA) transport direction.
The AB permeability (PEAB) represents drug absorption from the blood into the brain and the BA permeability (PEBA) drug efflux from the brain back into the blood via both, passive permeability as well as active transport mechanisms mediated by efflux and uptake transporters that are expressed on the MDCK-MDR1 cells, predominantly by the overexpressed human MDR1 P-gp. Identical or similar permeabilities in both transport directions indicate passive permeation, vectorial permeability points to additional active transport mechanisms. Higher PEBA than PEAB (PEBA/PEAB>5) indicates the involvement of active efflux mediated by MDR1 P-gp, which might compromises the goal to achieve sufficient brain exposure. Therefore this assay provides valuable support for selection of compounds applicable for further in vivo testing. High permeability not limited by efflux at the blood brain barrier is a favourable characteristic for compounds that are to be used for drugs acting primarily in the CNS
D. Assessment of Efflux in Madin-Darby Canine Kidney (MDCK) Cells Transfected with the Human MDR1 Gene
Apparent permeability coefficients (PE) of the compounds across the MDCK-MDR1 cell monolayers are measured (pH 7.4, 37° C.) in apical-to-basal (AB) and basal-to-apical (BA) transport direction. AB permeability (PEAB) represents drug absorption from the blood into the brain and BA permeability (PEBA) drug efflux from the brain back into the blood via both passive permeability as well as active transport mechanisms mediated by efflux and uptake transporters that are expressed on the MDCK-MDR1 cells, predominantly by the overexpressed human MDR1 P-gp. The compounds are assigned to permeability/absorption classes by comparison of the AB permeabilities with the AB permeabilities of reference compounds with known in vitro permeability and oral absorption in the human. Identical or similar permeabilities in both transport directions indicate passive permeation, vectorial permeability points to additional active transport mechanisms. Higher PEBA than PEAB indicates the involvement of active efflux mediated by MDR1 P-gp. Active transport is concentration-dependently saturable.
MDCK-MDR1 cells (1-2×10 e5 cells/1 cm2 area) are seeded on filter inserts (Costar transwell polycarbonate or PET filters, 0.4 μm pore size) and cultured (DMEM) for 7 days. Subsequently, the MDR1 expression is boosted by culturing the cells with 5 mM sodium butyrate in full medium for 2 days. Compounds are dissolved in appropriate solvent (like DMSO, 1-20 mM stock solutions). Stock solutions are diluted with HTP-4 buffer (128.13 mM NaCl, 5.36 mM KCl, 1 mM MgSO4, 1.8 mM CaCl2, 4.17 mM NaHCO3, 1.19 mM Na2HPO4×7H2O, 0.41 mM NaH2PO4×H2O, 15 mM HEPES, 20 mM glucose, 0.25% BSA, pH 7.4) to prepare the transport solutions (0.1-300 μM compound, final DMSO<=0.5%). The transport solution (TL) is applied to the apical or basolateral donor side for measuring A-B or B-A permeability (3 filter replicates), respectively. The receiver side contains the same buffer as the donor side. Samples are collected at the start and end of experiment from the donor and at various time intervals for up to 2 hours also from the receiver side for concentration measurement by HPLC-MS/MS or scintillation counting. Sampled receiver volumes are replaced with fresh receiver solution.

Data set [1] in a line: Assay C: metabolic stability in human liver microsomes (Human MST). In kind it is in vitro ADME. Conditions: pH 7.6, pooled human liver microsomes, 37° C., read-out: Assay C: Human MST t1/2. Here is the method:
C. Assessment of Metabolic Stability in Human Liver Microsomes (Human MST)
The metabolic stability of the compounds according to the invention may be investigated as follows:
The metabolic degradation of the test compound is assayed at 37° C. with pooled human liver microsomes. The final incubation volume of 100 μL per time point contains TRIS buffer pH 7.6 at room temperature (0.1 M), MgCl2 (5 mM), microsomal protein (1 mg/mL) and the test compound at a final concentration of 1 μM. Following a short pre-incubation period at 37° C., the reactions are initiated by addition of beta-nicotinamide adenine dinucleotide phosphate, reduced form (NADPH, 1 mM), and terminated by transferring an aliquot into solvent after different time points. After centrifugation (10000 g, 5 min), an aliquot of the supernatant is assayed by LC-MS/MS for the amount of parent compound. The half-life (t1/2) is determined by the slope of the semi-logarithmic plot of the concentration-time profile.
(Microsomes from liver hold many membrane-bound enzymes, among them those of drug oxidation.)

The target in another data set is T1, OX2R (Homo sapiens, UniProt O43614).
T1 sequence (O43614 1-444): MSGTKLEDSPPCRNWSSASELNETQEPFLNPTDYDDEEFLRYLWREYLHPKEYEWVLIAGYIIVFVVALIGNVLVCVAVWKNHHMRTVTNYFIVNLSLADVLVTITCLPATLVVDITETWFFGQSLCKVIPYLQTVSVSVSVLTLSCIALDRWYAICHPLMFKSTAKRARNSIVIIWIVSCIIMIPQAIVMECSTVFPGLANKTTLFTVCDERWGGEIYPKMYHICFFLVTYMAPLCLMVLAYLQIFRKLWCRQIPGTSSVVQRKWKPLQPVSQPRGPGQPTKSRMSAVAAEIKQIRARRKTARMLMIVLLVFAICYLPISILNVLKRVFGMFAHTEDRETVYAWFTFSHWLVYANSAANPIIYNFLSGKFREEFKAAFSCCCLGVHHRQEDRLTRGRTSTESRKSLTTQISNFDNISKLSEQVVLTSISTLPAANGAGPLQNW
The following applies: cited from earlier work.

Where only a bound is given, the exact number is not on record here.

On to `CC[C@@H](CNc1ncc(C(F)(F)F)cn1)N(C)C(=O)c1nc(C)ccc1-c1ncccn1` [Ex 84 in WO2016/ 034882, reference compound], for which the efflux ratio in the data set on human MDR1 P-gp is below 3.
The term IC50 denotes the concentration at which inhibition is half-maximal. On to `CC[C@@H](CNc1ncc(C(F)(F)F)cn1)N(C)C(=O)c1c(F)cccc1-n1nccn1` [Ex 91 in WO2016/ 034882], for which the half-life at 1 μM in data set [1] was above 2.17 h. The efflux ratio in the data set on human MDR1 P-gp was below 3. The “OX2R pIC50” value on OX2R (as described in WO2016/034882, Table 3) is given as below 5.1. Moreover, the half-inhibitory concentration (IC50) on OX2R (corresponds to pIC50 of WO2016/034882, Table 3) was at least 7.95 µM.
